Assay [1] in a line: Rancimat oxidative stability test. Particulars: 100°C, 20 cc/min air. The protocol: The procedures described in Examples 1, 2 and 3 were used to prepare cocoa extracts which were manipulated further to produce two fractions from gel permeation chromatography. These two fractions are actually combined fractions A through C, and D and E (See Figure 1) whose antioxidant properties were compared against the synthetic antioxidants BHA and BHT.
Peanut Oil was pressed from unroasted peanuts after the skins were removed. 50µL of methanol solubilized antioxidant was added to each sample to aid in dispersion of the antioxidant. A control sample was prepared with 50µL of methanol containing no antioxidant.
The samples were evaluated in duplicate, for oxidative stability using the Rancimat stability test at 100°C and 20 cc/min of air. Experimental parameters were chosen to match those used with the Active Oxygen Method (AOM) or Swift Stability Test (Van Oosten et al., 1981). Results are reported in Table 8 as hours required to reach a peroxide level of 100 meq. Table 7: Concentrations of Antioxidants

Assay [2] relates to Helicobacter pylori. The assay is described as follows: Disk diffusion bioassay. In kind it is cell-based. To be noted: control disk, 80ug, read-out: H. pylori Inhibition. The protocol: (§1) A study was conducted to evaluate the antimicrobial activity of procyanidin oligomers against Helicobacter pylori and Staphylococcus aureus. Pentamer enriched material was prepared as described in Example 13, Method A and analyzed as described in Example 14, Method C, where 89% was pentamer, and 11% was higher oligomers (n is 6 to 12). Purified pentamer (96.3%) was prepared as described in Example 14, Method D.
(§2) Helicobacter pylori and Staphylococcus aureus were obtained from the American Type Culture Collection (ATCC). For H. pylori, the vial was rehydrated with 0.5 mL Trypticase Soy broth and the suspension transferred to a slant of fresh TSA containing 5% defibrinated sheep blood. The slant was incubated at 37°C for 3 to 5 days under microaerophilic conditions in anaerobic jars (5 to 10% carbon dioxide; CampyPakPlus, BBL). When good growth was established in the pool of broth at the bottom of the slant, the broth was used to inoculate additional slants of TSA with sheep blood. Because viability decreased with continued subculturing, the broth harvested from the slants was pooled and stored at -80°C. Cultures for assay were used directly from the frozen vials. […]
(§3) A cell suspension of each culture was prepared (H. pylori, 10^8 to 10^9 cfu/mL; S. aureus 10^6 to 10^7 cfu/mL) and 0.5 mL spread onto TSA plates with 5% sheep blood. […] Zones of inhibition were measured following outgrowth. […]

Assay [3] deals with Staphylococcus aureus. The assay is described as follows: Disk diffusion bioassay. The format is cell-based. To be noted: read-out: S. aureus Inhibition. The protocol:
as §1, §2, §3
In general terms: In agar diffusion tests the substance spreads into inoculated agar from a disc or well.

The subject of assay [4] is Human umbilical vein endothelial cells (HUVEC). The assay can be described thus: NO production by HUVEC, Griess reaction. In kind it is cell-based. The protocol: Human umbilical vein endothelial cells (HUVEC) were obtained from Clonetics and cultures were carried out according to the manufacturer's specifications. HUVEC cells were seeded at 5,000 cells/cm^2 in 12-well plates (Falcon). After the third passage under the same conditions, they were allowed to reach confluence. The supernatant was renewed with fresh medium containing defined concentrations of bradykinin (25,50 and 100nM) or cocoa procyanidin fractions A-E (100µg/mL) as described in example 31. The culture was continued for 24 hr. and the cell free supernatants were collected and stored frozen prior to assessment of NO content as described below. In selected experiments, the NO synthase (NOS) antagonist, Nω-nitro-L-arginine methyl ester (L-NAME, 10µM) was added to assess the involvement of NOS in the observed NO production.
HUVEC NO production was estimated by measuring nitrite concentration in the culture supernatant by the Griess reaction. Griess reagent was 1% sulfanilamide, 0.1% N-(1-naphthyl)-ethylenediamine dihydrochloride. Briefly, 50µL aliquots were removed from the various supernatants in quadruplicate and incubated with 150µL of the Griess reagent. The absorbency at 540 nm was determined in a multiscan (Labsystems Multiskans MCC/340) apparatus. Sodium nitrite was used at defined concentrations to establish standard curves. […]
(In general: The Griess reaction detects nitrite, a stable product of nitric oxide.)

As for `COc1ccc(O)c(C(C)(C)C)c1` [BHA, Butylated Hydroxyanisole], the “hours required to reach a peroxide level of 100 meq” value in assay [1] (20 ppm nominal (actual levels in Table 7), control 10.5 ± 0.7) turned out to be 13.5 ± 2.1 h; in assay [1] (100 ppm nominal (actual levels in Table 7)) it was 14.0 ± 1.4 h.
On to `Cc1ncc([N+](=O)[O-])n1CCO` [Metronidazole standard, metronidazole], for which the zone of inhibition at 80 µg/disc in assay [2] was 11 mm.
Take `CN[C@H](CC(C)C)C(=O)N[C@H]1C(=O)N[C@@H](CC(N)=O)C(=O)N[C@H]2C(=O)N[C@H]3C(=O)N[C@H](C(=O)N[C@H](C(=O)O)c4cc(O)cc(O)c4-c4cc3ccc4O)[C@H](O)c3ccc(c(Cl)c3)Oc3cc2cc(c3O[C@@H]2O[C@H](CO)[C@@H](O)[C@H](O)[C@H]2O[C@H]2C[C@](C)(N)[C@H](O)[C@H](C)O2)Oc2ccc(cc2Cl)[C@H]1O` [Vancomycin standard, vancomycin]: the zone of inhibition at 30 µg/disc in assay [3] was found to be 15 mm.
On to “bradykinin (RPPGFSPFR; Bradykinin; UniProt P01042 381-389, looked up)”, for which the “NO production by HUVEC” value in assay [4] (25, 50 and 100nM, 24 hr) is recorded as “dose dependent release of NO”. In addition, in assay [4] (L-NAME 10µM), the “NO release in the presence of L-NAME” value is listed as “completely inhibited”.

For the origin of these results see EP2110134A1, “Cocoa extract compounds and methods for making and using the same” (MARS, INCORPORATED, priority 1996, dated 1997).
